Earlier results on one compound are cited in patent publication US6783752B2, “Contrast agents” (Amersham Health AS, priority 1996, dated 2004).

The conditions of data set [1]: in vivo.
The test system of the next data set is coronary blood flow. To be noted: in vivo.

Regarding `Nc1ncnc2c1ncn2[C@@H]1O[C@H](CO)[C@@H](O)[C@H]1O` [adenosine], the blood pool half-life in data set [1] was 2 s. Further, the “increase in coronary blood flow in healthy myocardial tissue” value with coronary blood flow is listed as “in excess of fourfold increases in coronary blood flow”.
